Where a name gives a salt, the structure may show the parent alone. Where only a bound is given, the exact number is not on record here.

We go through 13 compounds from patent US20050137215A1, “[C]-fused bicyclic proline derivatives and their use for treating arthritic conditions” (priority 2003, published 2005).

The target in one data set is leucine transport system (Cricetulus griseus, UniProt G3GRU9). Nature of the data set: Leucine transport system binding assay (LTSBA), [3H]leucine uptake in CHO K1 cells. As to conditions: conclusion from Table 3. It counts as cell-based. The protocol:
Leucine Transport System Binding Assay (“LTSBA”) The sodium-containing buffer for transport assay was phosphate buffered saline (“PBS”) consisting of 137 mM NaCl, 2.7 mM KCl, 10.6 mM Na2HPO4, and 1.5 mM KH2PO4. The sodium-free buffer had equimolar amounts of choline chloride and choline phosphate in place of NaCl and […], respectively. This buffer is referred to as PBC. Prior to use, both PBS and PBC buffers (pH 7.4) were supplemented with 5.6 mM D-glucose, 0.49 mM MgCl2, and 0.9 mM CaCl2 (GMC). For cultured monolayer cells (in general, CHO K1 cells), the cluster tray transport assay was used as described previously (Su et al, J. Neurochem., 1995; 64:2125-2131, and references therein). […] The initial transport rates were determined by measuring uptake of tracer [3H] […] Secondary analysis of the initial velocity kinetic curves were determined by non linear regression analysis, using the equation: log V=log {[Vmax.S/(Km+S)]+P.[S]} where V, S, Vmax, and Km have their conventional meanings, and P represents the first order rate constant describing the nonsaturable uptake. An IC50 was determined as percentage inhibition of saturable leucine uptake. […] They were calculated by subtracting the corresponding substrate uptake rates in the presence of 10 mM excess unlabeled leucine from the total uptake rates. […] The efflux was calculated as percentage of the intracellular labeled substrate at zero time. […]

Another data set has as its target alpha-2-delta receptor 1 (Sus scrofa, UniProt A0A287BIN3). Nature of the data set: [3H]Gabapentin A2DR1 binding assay. The arrangement: species or system pig. Conditions: Biological Method 4; read-out: A2DR1 IC50, displacement of [3H]-gabapentin. The text has this: (§1) [^3H]Gabapentin A2DR1 and A2DR2 Binding Assays (“A2DR1” and “A2DR2”, Respectively)
(§2) HEK 293 recombinant cells expressing A2DR1 or A2DR2 protein are harvested and washed in phosphate buffered saline (“PBS”). The cells are centrifuged and resuspended in tris(hydroxymethyl)aminomethane-ethylenediaminetetraacetic acid (“Tris-EDTA” or “TE”) buffer containing Roche Complete Protease Inhibitor Cocktail. The cells are homogenized, centrifuged at 3000×g, and the supernatant centrifuged again at 50,000×g. The resulting pellet is resuspended and homogenized in TE. Following determination of A2DR1 or A2DR2 protein concentration, aliquots are stored at −70° C. until the day of testing (membrane preparation may be used for at least 6 months).
(§3) In one version, the binding assay is set up in a 96-well format using deep-well polypropylene plates. […] Non-specific binding for each plate is determined by the addition of 10 μM of pregabalin instead of test compound in a few of the 96 wells. […] The mats are placed into plastic pouches, scintillation cocktail is added, the pouches are sealed, and radioactivity for each sample is counted.
(§4) Specific binding values for each concentration are transformed and then analyzed by a 4-parameter nonlinear regression equation provided by Prism graphics software by Graph Pad to determine IC50 values by conventional means.
Displacement of [3H]-gabapentin from an alpha-2-delta receptor-1 or an alpha-2-delta receptor-2 by certain invention compounds is evidenced below in Table 2. In Table 2, the displacement was determined according to one of the above Biological Methods 4 or 6, and reported as an IC50 in micromolar concentration of invention compound in the columns labeled “A2DR1 IC50 (μM),” “A2DR2 IC50 […],” and “GABAPAA IC50 (μM),” respectively, for a reference compound, racemic octahydroisoindole-2-carboxylic acid (“OHIII2CA”) and certain invention compounds, which are referenced by Compound Example number in the column labeled “Compound Example No.”.
(Displacement assays read how much labelled ligand stays bound in the presence of the test substance.)

Data set [1] relates to Monosodium Iodoacetate-Induced Osteoarthritis in Rat Model of Joint Cartilage Damage. Nature of the data set: Monosodium iodoacetate-induced osteoarthritis in rat (MIA Rat), loss of hind limb joint function. It counts as in vivo. As to conditions: male Wistar rats, MIA 1 mg/joint, 10 mg/kg/day subcutaneously via osmotic pump. From the text:
Monosodium Iodoacetate-Induced Osteoarthritis in Rat Model of Joint Cartilage Damage (“MIA Rat”):
One end result of the induction of osteoarthritis in this model, as determined by histologic analysis, is the development of an osteoarthritic condition within the affected joint, as characterized by the loss of Toluidine blue staining and formation of osteophytes. Associated with the histologic changes is a concentration-dependent degradation of joint cartilage, as evidenced by affects on hind-paw weight distribution of the limb containing the affected joint, the presence of increased amounts of proteoglycan or hydroxyproline in the joint upon biochemical analysis, or histopathological analysis of the osteoarthritic lesions.
The invention compounds typically are not effective for relieving joint pain when administered in an acute model, such as the instant MIA Rat model, which has a duration of just 14 or 28 days.
Generally, In the MIA Rat model on Day 0, the hind-paw weight differential between the right arthritic joint and the left healthy joint of male Wistar rats (150 g) are determined with an incapacitance tester, model 2KG (Linton Instrumentation, Norfolk, United Kingdom). The incapacitance tester has a chamber on top with an outwardly sloping front wall that supports a rat's front limbs, and two weight sensing pads, one for each hind paw, that facilitates this determination. Then the rats are anesthetized with isofluorine, and the right, hind leg knee joint is injected with 1.0 mg of mono-iodoacetate (“MIA”) through the infrapatellar ligament. Injection of MIA into the joint results in the inhibition of glycolysis and eventual death of surrounding chondrocytes. The rats are further administered either an invention compound or vehicle (in the instant case, water) daily for 14 days or 28 days.
The invention compound is typically administered at a dose of 30 mg of per kilogram of rat per day (30 mg/kg/day), but may be administered at other doses such as, for example, 10 mg/kg/day, 60 mg/kg/day, 90-mg/kg/day, or 100 mg/kg/day according to the requirements of the invention compound being studied. It is well within the level of ordinary skill in the pharmaceutical arts to determine a proper dosage of an invention compound in this model.
Administration of an invention compound in this model is optionally by oral administration or by intravenous administration via an osmotic pump. After 7 and 14 days for a two week study, or 7, 14, and 28 days for a four week study, the hind-paw weight distribution is again determined. Typically, the animals administered vehicle alone place greater weight on their unaffected left hind paw than on their right hind paw, while animals administered an invention compound show a more normal (i.e., more like a healthy animal) weight distribution between their hind paws. This change in weight distribution was proportional to the degree of joint cartilage damage. Percent inhibition of a change in hind paw joint function is calculated as the percent change in hind-paw weight distribution for treated animals versus control animals. For example, for a two week study, [formula] wherein: ΔWC is the hind-paw weight differential between the healthy left limb and the arthritic limb of the control animal administered vehicle alone, as measured on Day 14; and • ΔWG is the hind-paw weight differential between the healthy left limb and the arthritic limb of the animal administered an invention compound as measured on Day 14.
Administration via osmotic pump is preferable for screening compounds. In a particular experiment, monosodium iodoacetate (“MIA”) (1 mg/joint) was injected through the infrapatellar ligament of the right knee of anesthetized male, Wistar rats. The contralateral control knee was injected with 50 μL of physiologic saline. […]

Data set [2] has as its target alpha-2-delta receptors, membrane from pig cortex (Sus scrofa, UniProt O77773). The data set is described as follows: [3H]Gabapentin A2DR binding assay (GABAPAA / GABAP). Conditions: Biological Method 6, pig cortex membrane; read-out: GABAPAA IC50, displacement of [3H]-gabapentin. As to the method:
In one version, the binding assay is set up in a 96-well format using deep-well polypropylene plates. In a total volume of 500 μL, the following additions are made: 250 μL buffer [10 mM N-2-hydroxyethylpiperazine-N′-2-ethanesulfonic acid (“HEPES”), pH 7.4], 25 μL [3H]gabapentin (10 nM final concentration), 200 μL thawed tissue membrane preparation from Step (1) (˜40 μg protein), and 25 μL of test compound at 7 test dilutions (for example, 0.001, 0.01, 0.03, 0.1, 0.3, 1.0, and 10 μM concentrations). Non-specific binding for each plate is determined by the addition of 10 μM of pregabalin instead of test compound in a few of the 96 wells. Following incubation for 45 minutes at 21° C., the contents of the wells are filtered under vacuum onto glass filter/B (“GF/B”) filter mats and then washed 4×1 mL with chilled 50 mM tris(hydroxymethyl)aminomethane (“Tris”) HCl, pH 6.9. The mats are placed into plastic pouches, scintillation cocktail is added, the pouches are sealed, and radioactivity for each sample is counted.
as §4
[^3H]Gabapentin A2DR Binding Assay (“GABAPAA” or “GABAP”) […]

Another data set concerns the target alpha-2-delta receptor 2 (UniProt A0A8W4FF87). The data set is described as follows: [3H]Gabapentin A2DR2 binding assay. As to conditions: Biological Method 4; read-out: A2DR2 IC50, displacement of [3H]-gabapentin. Also on record: species or system pig.
Excerpt: as §1, §2, §3
Specific binding values for each concentration are transformed and then analyzed by a 4-parameter nonlinear regression equation provided by Prism graphics software by Graph Pad to determine IC50 values by conventional means. […]

leucine transport system, sequence (G3GRU9 entry or part of it): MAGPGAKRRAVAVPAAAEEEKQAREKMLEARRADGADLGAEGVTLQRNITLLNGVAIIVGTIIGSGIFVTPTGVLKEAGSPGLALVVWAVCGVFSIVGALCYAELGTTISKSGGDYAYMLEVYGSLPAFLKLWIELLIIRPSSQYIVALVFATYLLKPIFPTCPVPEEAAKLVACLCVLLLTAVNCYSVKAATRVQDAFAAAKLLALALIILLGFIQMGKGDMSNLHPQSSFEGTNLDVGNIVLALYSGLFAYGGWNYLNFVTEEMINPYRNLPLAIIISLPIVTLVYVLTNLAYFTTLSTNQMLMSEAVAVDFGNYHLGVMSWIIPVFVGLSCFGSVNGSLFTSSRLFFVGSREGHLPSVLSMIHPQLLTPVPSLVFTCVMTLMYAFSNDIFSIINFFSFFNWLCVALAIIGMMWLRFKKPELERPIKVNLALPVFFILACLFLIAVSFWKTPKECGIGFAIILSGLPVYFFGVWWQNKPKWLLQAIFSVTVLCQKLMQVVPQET
leucine transport system, sequence (A0A9J7CH39 entry or part of it, further chain): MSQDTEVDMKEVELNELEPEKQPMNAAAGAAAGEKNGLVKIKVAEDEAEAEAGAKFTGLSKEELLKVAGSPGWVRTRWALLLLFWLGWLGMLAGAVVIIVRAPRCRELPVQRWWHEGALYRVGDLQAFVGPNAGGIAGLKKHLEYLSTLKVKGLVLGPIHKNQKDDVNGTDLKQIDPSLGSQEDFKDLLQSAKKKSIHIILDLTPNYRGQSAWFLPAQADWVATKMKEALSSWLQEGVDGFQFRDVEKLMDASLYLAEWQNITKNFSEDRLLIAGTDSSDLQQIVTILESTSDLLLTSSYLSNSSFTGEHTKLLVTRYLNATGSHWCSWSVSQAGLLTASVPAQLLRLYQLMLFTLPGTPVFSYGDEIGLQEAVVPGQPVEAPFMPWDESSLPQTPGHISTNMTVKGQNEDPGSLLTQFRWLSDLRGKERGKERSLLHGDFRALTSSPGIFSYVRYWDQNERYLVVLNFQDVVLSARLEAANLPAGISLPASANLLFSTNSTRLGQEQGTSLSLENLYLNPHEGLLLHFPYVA
alpha-2-delta receptors, membrane from pig cortex, sequence (O77773 25-1091): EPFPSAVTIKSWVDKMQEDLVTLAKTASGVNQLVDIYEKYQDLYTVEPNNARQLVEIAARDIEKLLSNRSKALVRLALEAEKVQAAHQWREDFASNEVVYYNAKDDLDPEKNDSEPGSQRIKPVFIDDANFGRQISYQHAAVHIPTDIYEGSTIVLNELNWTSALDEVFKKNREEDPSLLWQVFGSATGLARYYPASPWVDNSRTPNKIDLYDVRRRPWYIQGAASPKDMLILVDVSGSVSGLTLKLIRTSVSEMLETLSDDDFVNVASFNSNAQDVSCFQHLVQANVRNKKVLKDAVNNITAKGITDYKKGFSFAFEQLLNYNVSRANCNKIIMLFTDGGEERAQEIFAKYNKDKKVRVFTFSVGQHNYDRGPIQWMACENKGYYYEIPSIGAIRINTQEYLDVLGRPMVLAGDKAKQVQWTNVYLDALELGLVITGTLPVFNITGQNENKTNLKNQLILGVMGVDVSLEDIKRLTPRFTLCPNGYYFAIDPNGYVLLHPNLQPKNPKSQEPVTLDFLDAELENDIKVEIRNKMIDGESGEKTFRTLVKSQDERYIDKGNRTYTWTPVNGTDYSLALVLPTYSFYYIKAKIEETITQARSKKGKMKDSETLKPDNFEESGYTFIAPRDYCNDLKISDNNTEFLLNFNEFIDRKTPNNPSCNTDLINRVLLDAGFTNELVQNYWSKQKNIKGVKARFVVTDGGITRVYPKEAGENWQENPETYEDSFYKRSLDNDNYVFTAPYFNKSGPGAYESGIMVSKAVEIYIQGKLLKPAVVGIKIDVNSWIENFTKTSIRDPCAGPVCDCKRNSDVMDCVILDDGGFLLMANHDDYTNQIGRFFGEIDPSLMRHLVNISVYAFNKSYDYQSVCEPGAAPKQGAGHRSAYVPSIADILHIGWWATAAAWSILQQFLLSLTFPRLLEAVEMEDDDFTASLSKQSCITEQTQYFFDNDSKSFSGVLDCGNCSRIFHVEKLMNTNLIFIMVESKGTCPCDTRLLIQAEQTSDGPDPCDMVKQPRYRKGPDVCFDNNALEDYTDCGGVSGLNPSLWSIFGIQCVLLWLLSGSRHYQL

For `Cl.O=C(O)N1CC2CCCCC2C1` (centres unmarked) [OHII2CA HCl, octahydroisoindole-2-carboxylic acid hydrochloride], on leucine transport system, the “binding to the leucine transport system (in words)” value was “weakly bind or do not bind”. Take `O=C(O)[C@@]12CCCN1C[C@H]1CCCC[C@H]12` [Example M1]: the IC50 at alpha-2-delta receptor 1 is no less than 10 µM. `O=C(O)[C@@H]1NC[C@@H]2[C@H]1[C@H]1CC[C@@H]2O1` (racemic) showed a melting point of 188 to 190 °C.

As to `O=C(O)C1NCC2C3CCC(CC3)C12` (centres unmarked) [Example R3], the “% I @ 10 mg/kg/day (%) (± SEM): inhibition of loss of hind limb joint function in MIA at Day 14” value in data set [1] was found to be 20%.

`COC1CC2CNC(C(=O)O)C2CC1OC` (centres unmarked): the melting point is 235 to 241 °C (dec.). As to `CN1C[C@H]2C3CCC(CC3)[C@H]2[C@@H]1C(=O)O` [Example R2], the “% I @ 10 mg/kg/day (%) (± SEM): inhibition of loss of hind limb joint function in MIA at Day 14” value in data set [1] is recorded as −20%. On to `CC12CCCCC1CNC2C(=O)O` (centres unmarked) [Example B4], for which the “% I @ 10 mg/kg/day (%) (± SEM): inhibition of loss of hind limb joint function in MIA at Day 14” value in data set [1] is on record as 13%.

On to `O=C(O)N1CC2CCCCC2C1` (racemic) [OHII2CA, racemic octahydroisoindole-2-carboxylic acid], for which the half-maximal inhibitory concentration (IC50) in data set [2] amounted to 0.03 µM. In the case of `C[C@]1(C(=O)O)NC[C@H]2CCCC[C@H]21` [Example B2], the “% I @ 10 mg/kg/day (%) (± SEM): inhibition of loss of hind limb joint function in MIA at Day 14” value in data set [1] is listed as −5%. Besides, the IC50 at alpha-2-delta receptor 1 and at alpha-2-delta receptor 2 was no less than 10 µM in each case. Take `O=C(O)C1NCC2C1CCC2(F)F` (centres unmarked): the melting point was 200 to 205 °C (dec.).

Turning to `CC1(C)N[C@H](C(=O)O)[C@@H]2CCCC[C@H]21` (racemic) [Example B5], in data set [1], the “% I @ 10 mg/kg/day (%) (± SEM): inhibition of loss of hind limb joint function in MIA at Day 14” value is on record as 32%. For the same compound, the IC50 at alpha-2-delta receptor 1 and on alpha-2-delta receptor 2 was no less than 10 µM throughout. `O=C(O)[C@@]12CCCN1C[C@H]1CCCC[C@H]12` (racemic) (as salt: hydrochloride) came in with a melting point of 250 to 255 °C.

With `CN1CC2CCCCC2C1(C)C(=O)O` (centres unmarked) [Example B1], the “% I @ 10 mg/kg/day (%) (± SEM): inhibition of loss of hind limb joint function in MIA at Day 14” value in data set [1] is recorded as 32%.

A word on the IC50: it is the concentration that inhibits the measured activity by half. A word on the melting point: it is the temperature of the solid-liquid transition.
